In patent publication US8921323B2, “Methods and compositions for modulating BCL-2 family polypeptides” (Dana Farber Cancer Institute, Inc., priority 2007, dated 2014):
Ends that are not written are not given here.

Columns and labels:
[1] = system: BAX-mediated cytochrome c release, BAX/BAK doubly-deficient mouse liver mitochondria; experiment: mitochondrial cytochrome c release assay; format: biochemical; details: Alb-cre pos Bax flox/− Bak−/− mouse liver mitochondria plus BAX
Text: (§1) To confirm that the SEC-based detection of BIM SAHB-induced BAX oligomerization reflects functional activation of BAX for its release activity, we performed correlative liposomal and mitochondrial assays. […] Thus, in four distinct in vitro assays that measure ligand-induced BAX activation, BIM SAHB directly and dose-responsively triggered BAX.
Mitochondrial Release Assay: In order to test activation/inhibition of a BCL-2 family polypeptide interactions on mitochondrial apoptosis induction, a cytochrome c release assay is used that employs mouse liver mitochondria from Bak^−/− mice or Alb-cre^posBax^flox/−Bak^−/− mice, added recombinant BCL-2 family polypeptide, e.g., BAX, BAK, or BOK (50 nM) with or without increasing doses of SAHBs (50-500 nM), and an ELISA-based read-out of cytochrome c. Negative controls include recombinant protein alone, compounds alone, vehicle treatment, point mutant SAHBs, and blockade using anti-apoptotic proteins, such as BCL-XL ΔC.

monomeric BAX = monomeric BAX (Homo sapiens, UniProt Q07812); experiment: BAX oligomerization assay (size exclusion chromatography); format: biochemical; details: wild-type BAX, room temperature
Chain of monomeric BAX (Q07812 whole entry): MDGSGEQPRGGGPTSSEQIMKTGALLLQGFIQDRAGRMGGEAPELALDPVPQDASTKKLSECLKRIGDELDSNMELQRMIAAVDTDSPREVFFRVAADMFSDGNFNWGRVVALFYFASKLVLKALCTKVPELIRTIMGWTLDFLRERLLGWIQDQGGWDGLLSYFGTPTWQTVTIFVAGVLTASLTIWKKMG
Text: In contrast to the stable inhibitory interactions of BIM BH3 with anti-apoptotic proteins, the BAX-activating interaction triggers a dynamic continuum of events that includes BAX conformational change and oligomerization. […] In monomeric BAX, the center of the loop weakly associates with residues Ile133 and Met 137 of the α6 helix (Suzuki & Tjandra, Cell 103 (4), 645-654 (2000)). Changes observed in the loop residues can readily be explained by the shift of the loop conformation into an open form upon BIM SAHB binding. Because loop displacement upon ligand engagement may initiate a conformational change of BAX, we investigated whether BIM SAHB binding could directly activate BAX in solution. We monitored both the conversion of BAX from monomer to oligomer by size-exclusion chromatography (SEC) and the exposure of its buried N-terminal residues using the 6A7 antibody, which selectively detects the conformational change associated with BAX activation (Hsu & Youle, The Journal of biological chemistry 272 (21), 13829-13834 (1997)). […] Thus, the transient stability of the BIM SAHB-BAX complex we observe by NMR correlates with the interaction-triggered BAX conformational change and oligomerization that we detect biochemically.
Oligomerization assay: BIM SAHB was added to a 200 μL solution (20 mM Hepes/KOH pH 7.2-7.4, 150 mM KCl) containing monomeric BAX (38 μM) at a ratio of 0.5:1, 1:1, 2:1 and 4:1 BIM SAHB:BAX. The mixtures and a sample of BAX monomer alone were incubated at 22° for 15 minutes and then subjected to analysis by size exclusion chromatography (SEC) using an SD75 column. […] Protein standards (GE Healthcare) were used to calibrate the molecular weights of gel filtration peaks. For time-dependent analysis, BIM SAHB was added to monomeric BAX at a ratio of 1:1, and the mixtures were analyzed by SEC after incubation for 30, 60, and 90 minutes at 22° C. As a baseline for comparison, Bax monomer alone was analyzed at time 0 and the above time points.

[2] = system: MCL-1 overexpressing or otherwise chemoresistant cancer cells; experiment: reactivating apoptosis of MCL-1 overexpressing or chemoresistant cancer cells; format: cell-based
Text: Many cancer cells and their relapsed/chemoresistant variants achieve cellular immortality by massively overexpressing anti-apoptotic members of the BCL-2 family. Using BH3 mimetics and small molecules, anti-apoptotic inhibition is one mode of overcoming apoptotic blockade. However, when BH3 mimetics or small molecules have a specificity profile that cannot target a specific anti-apoptotic blockade, such as MCL-1 overexpression (Van Delft et al, Cancer Cell. 2006 Nov.; 10(5):389-99; Konopleva et al, Cancer Cell. 2006 Nov.; 10(5):375-88; Deng et al Cancer Cell. 2007 Aug.; 12(2):171-85), direct BAX modulation can circumvent, or synergize with, such apoptotic blockade for therapeutic benefit. […] Therefore, cancers or other diseased cells that either overexpress anti-apoptotic proteins such as MCL-1 and A1, or cancers or diseased cells that specifically down-regulate activator BH3-only proteins, like BIM, such as in Mantle Cell lymphoma (Tagawa et al Oncogene. 2005 Feb. 17; 24(8):1348-58; Mestre-Escorihuela, Blood. 2007 Jan. 1; 109(1):271-80) and cf. with mouse model of BIM-deletion, are ideally suited for BIM SAHB, or derivatives and mimetics thereof, to reactivate apoptosis through direct engagement of the novel BAX activation site and thereby induce apoptosis for therapeutic purposes and irrespective of the aforementioned apoptotic blockades.

[3] = target: T1, BCL-2-related ovarian killer (BOK) (Homo sapiens, UniProt Q9UMX3); experiment: binding of SAHB ligands to BOK
T1 sequence (Q9UMX3 1-212): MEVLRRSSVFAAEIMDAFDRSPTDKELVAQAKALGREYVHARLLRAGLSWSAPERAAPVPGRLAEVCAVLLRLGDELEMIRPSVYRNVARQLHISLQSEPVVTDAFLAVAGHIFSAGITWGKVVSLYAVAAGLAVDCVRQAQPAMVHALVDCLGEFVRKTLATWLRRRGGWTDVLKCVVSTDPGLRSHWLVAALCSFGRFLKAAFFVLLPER

[4] = system: Bax−/−Bak−/− mouse embryo fibroblasts reconstituted with wild type BAX; experiment: apoptosis of BAX-reconstituted DKO MEFs (annexin-V binding); format: cell-based
Text: (§2) To determine if this single point mutation within the novel BAX binding site impacted the capacity to activate BAX in a cellular context, we retrovirally reconstituted Bax^−/−Bak^−/− mouse embryo fibroblasts (DKO MEFs) with either wild type or BAXK21E and monitored apoptosis induction in response to BIM SAHB. […] This decrease in BAXK21E-mediated apoptosis correlates with impaired activation of […] by BIM SAHB in both oligomerization and cytochrome c release assays (FIG. 15a, 15b).

BAX = BAX (Homo sapiens, UniProt Q07812); experiment: liposomal release assay (FITC-dextran); format: biochemical; details: combination with BAX
Chain of BAX (Q07812 whole entry): as the sequence (Q07812 whole entry) above
Text: as §1
Liposomal Release Assay: Another assay that can be used to determine modulation of the BCL-2 family polypeptide is a liposomal release assay that simulates the mitochondria but only includes the essential components for BAX/BAK/BOK-induced release. […] Lipid concentration is determined by measuring vesicular phosphate content (Böttcher, C. J. F. et al. (1961) Anal Chim Acta 24, 203-204). The fluorescence dequenching assay is adapted from previous reports (Kuwana, T. et al. (2002) Cell 111(3), 331-342) (Terrones, O., et al. (2004) J Biol Chem 279(29), 30081-30091). The release of FITC-labeled dextran-10 kD from LUVs is monitored using a FluoroMax-2 spectrofluorometer (SPEX), in a thermostated 1 cm path length quartz cuvette with constant stirring at 37° C. […]

[5] = system: Bax−/−Bak−/− mouse embryo fibroblasts reconstituted with BAXK21E; experiment: apoptosis of BAXK21E-reconstituted DKO MEFs (annexin-V binding); format: cell-based; details: compared with wild-type BAX
Text: as §2
To probe the broader physiologic impact of the novel BAX activation site, we examined the apoptotic response of DKO MEFs reconstituted with BAX and BAXK21E to staurosporine (STS), a general stimulus known to operate through endogenous BH3-only proteins, including BIM. K21E mutagenesis impaired STS-induced apoptosis, as monitored by annexin V binding over time (FIG. 15d). The reduced activity of BAXK21E was also reflected by impaired cytochrome c release, as detected by subcellular fractionation Western analysis and indirect immunofluorescence. The blunted response of BAXK21E-reconstituted DKO MEFs to STS is uniformly consistent with impaired activation of BAXK21E by BIM SAHB in oligomerization (FIG. 15a), cytochrome c release (FIG. 15b), and cell-based apoptosis assays (FIG. 15c). […]

[6] = system: Pfeiffer lymphoma cell line which overexpresses MCL-1 and A1; experiment: killing of Pfeiffer lymphoma cell line; format: cell-based

| Compound | BAX-mediated cytochrome c release [1] | BAX oligomerization (monomer to oligomer, SEC) (monomeric BAX) | apoptosis induction, annexin-V binding [5] | also measured |
| --- | --- | --- | --- | --- |
| I155E: BIM SAHB with hydrophobic to charged point mutation I155E (FIG. 13a) (EIWIAQELRREGDEFNAYYARR; staple (positions not given here); also: hydrocarbon staple, positions not given here) | abrogated | abrogated | – | – |
| BID SAHB: hydrocarbon-stapled BID BH3 polypeptide (FIG. 9, SEQ ID NO:4) (ESQEDIIRNIARHLAQVGDEMDRSI; staple (positions not given here); also: hydrocarbon staple, positions not given here; listed as Homo sapiens) | – | – | – | potency in reactivating apoptosis relative to ABT-737 or BAD SAHB [2]: more potent; binding to BOK [3]: bound |
| D157R: BIM SAHB with reverse-polarity point mutation D157R (FIG. 13a) (EIWIAQELRRIGREFNAYYARR; staple (positions not given here); also: hydrocarbon staple, positions not given here) | abrogated | abrogated | – | – |
| BIM SAHB R153D: BIM SAHB with reverse-polarity point mutation R153D at the BAX interaction surface (FIG. 13a) (EIWIAQELDRIGDEFNAYYARR; staple (positions not given here); also: hydrocarbon staple, positions not given here) | abrogated | abrogated | abolished | apoptosis induction, annexin-V binding [4]: abolished; liposomal release of entrapped FITC-dextran (BAX): abrogation of activity |
| CN(C)CC[C@H](CSc1ccccc1)Nc1ccc(S(=O)(=O)NC(=O)c2ccc(N3CCN(Cc4ccccc4-c4ccc(Cl)cc4)CC3)cc2)cc1[N+](=O)[O-] [ABT-737, reference compound] | – | – | – | cell killing / sensitivity [6]: resistant |
| CN[C@@H]1C[C@H]2O[C@@](C)([C@@H]1OC)n1c3ccccc3c3c4c(c5c6ccccc6n2c5c31)C(=O)NC4 [staurosporine, reference compound] | – | – | impaired | – |
